Results from patent US20130171189A1, “INDUCIBLE AND REPRESSIBLE VACCINIA VIRUSES WITH IMPROVED SAFETY” (priority 2011, published 2013).
Like-named read-outs stand apart in the source and are kept apart here.

Tested on: BS-C-1 cells
Assay type: cell-based
Details: vRG0-infected cells
Protocol: EGFP Expression Levels by vRG0 Were not Repressed Even in the Presence of High Concentrations of TCs: To test whether vRG0 was repressible by TCs, BS-C-1 cells were infected with vRG0 in the presence of increasing concentrations of ATC, TET, or DOX. The cytopathic effect observed by brightfield microscopy 2 days post-infection was indistinguishable from the cytopathic effect observed from cells treated with ATC and 10 μg/ml or less of TET or DOX (data not shown).
Since TCs complexed to MgCl2 bind to the TetR repressor with higher affinity than TCs alone (a commonly used strategy when studying induced conformation of the repressor by x-ray crystallography), ATC was incubated with MgCl2 to allow for complex formation.

[1] = 100 μg/ml, 2 days post-infection

With `[Cl-].[Cl-].[Mg+2]` [MgCl2] the Cell toxicity (100 mM MgCl2 (ATC-MgCl2), 2 days) was “toxicity-associated morphology”.
For `Cc1c2c(c(O)c3c(O)cccc13)C(=O)[C@]1(O)C(=O)C(C(N)=O)=C(O)[C@@H](N(C)C)[C@@H]1C2` [ATC, anhydrotetracycline], the Cell toxicity (lower concentrations than TET and DOX) was “did not incur any toxicity”.
In the case of `C[C@H]1c2cccc(O)c2C(=O)C2=C(O)[C@]3(O)C(=O)C(C(N)=O)=C(O)[C@@H](N(C)C)[C@@H]3[C@@H](O)[C@@H]21` [DOX, doxycycline], the Cell toxicity [1] is reported as “morphology associated with cell toxicity”.
With `CN(C)[C@@H]1C(O)=C(C(N)=O)C(=O)[C@@]2(O)C(O)=C3C(=O)c4c(O)cccc4[C@@](C)(O)[C@H]3C[C@@H]12` [TET, tetracycline] the Cell toxicity [1] was “morphology associated with cell toxicity”.
